Where two headings read alike, the source gives them in different places.
Assays:
Format in all cases: cell-based
[1] = tested on: Staphylococcus aureus No. 6538; test: Serial dilution anti-bacterial test in BBL Trypticase Soy Broth; set-up: Test Culture and Results Staphyloccus aureus # 6538: key: -: Denotes no test; +: Denotes growth; 0: Denotes no growth; details: for MIC: Staphylococcus aureus, read-out: Minimum Inhibitory Centration
Description: (§1) The product compound of the Example 1 was tested for anti-bacterial and anti-fungal activity and compared to the known commercial broad spectrum bactericide/fungicide, according to the following procedure.
(§2) Samples of the compound were prepared for testing by making a stock solution in sterile distilled water containing 10,000 parts per million. Serial dilutions of each sample were prepared in appropriate culture media which were then innoculated with the test cultures and incubated. The tests employing bacteria were performed in BBL Trypticase Soy Broth incubated for 48 hours at 35° C. The tests employing A. niger were performed in Difco Sabouraud Dextrose Broth incubated for 5 days at 26° C.
(§3) The test cultures were Staphylococcus aureus No. 6538, Pseudomonas aeruginosa No. 9027 and Aspergillus niger No. 16404.

[2] = tested on: Aspergillus niger No. 16404; test: Serial dilution anti-fungal test in Difco Sabouraud Dextrose Broth; set-up: Test Culture and Results Aspergillis niger # 16404: key: -: Denotes no test; +: Denotes growth; 0: Denotes no growth; details: for MIC: Aspergillus niger, NO.16404, 120 h, read-out: Minimum Inhibitory Centration
Description: as §1, §2, §3

[3] = tested on: Pseudomonas aeruginosa No. 9027; test: Serial dilution anti-bacterial test in BBL Trypticase Soy Broth; details: for MIC: Pseudomonas aeruginosa, read-out: Minimum Inhibitory Centration; for Test Culture and Results Pseudomonas aeruginosa # 9027: key: -: Denotes no test; +: Denotes growth; 0: Denotes no growth
Description: as §1, §2, §3

[4] = 100 parts per million, 48 hours at 35° C
[5] = 200 parts per million, 48 hours at 35° C
[6] = 300 parts per million, 48 hours at 35° C
[7] = 400 parts per million, 48 hours at 35° C
[8] = 500 parts per million, 48 hours at 35° C
[9] = 600 parts per million, 48 hours at 35° C
[10] = 700 parts per million, 48 hours at 35° C
[11] = 800 parts per million, 48 hours at 35° C
[12] = 900 parts per million, 48 hours at 35° C
[13] = 1000 parts per million, 48 hours at 35° C
[14] = 100 parts per million, 5 days at 26° C
[15] = 200 parts per million, 5 days at 26° C
[16] = 300 parts per million, 5 days at 26° C
[17] = 400 parts per million, 5 days at 26° C
[18] = 500 parts per million, 5 days at 26° C
[19] = 600 parts per million, 5 days at 26° C
[20] = 700 parts per million, 5 days at 26° C
[21] = 800 parts per million, 5 days at 26° C
[22] = 900 parts per million, 5 days at 26° C
[23] = 1000 parts per million, 5 days at 26° C

SMILES	Test Culture and Results Staphyloccus aureus # 6538 [1, 4]	Test Culture and Results Staphyloccus aureus # 6538 [1, 5]	Test Culture and Results Staphyloccus aureus # 6538 [1, 6]	Test Culture and Results Staphyloccus aureus # 6538 [1, 7]	Test Culture and Results Staphyloccus aureus # 6538 [1, 8]	Test Culture and Results Staphyloccus aureus # 6538 [1, 9]	Test Culture and Results Staphyloccus aureus # 6538 [1, 10]	Test Culture and Results Staphyloccus aureus # 6538 [1, 11]	Test Culture and Results Staphyloccus aureus # 6538 [1, 12]	Test Culture and Results Staphyloccus aureus # 6538 [1, 13]	Test Culture and Results Aspergillis niger # 16404 [2, 14]	Test Culture and Results Aspergillis niger # 16404 [2, 15]	Test Culture and Results Aspergillis niger # 16404 [2, 16]	Test Culture and Results Aspergillis niger # 16404 [2, 17]	Test Culture and Results Aspergillis niger # 16404 [2, 18]	Test Culture and Results Aspergillis niger # 16404 [2, 19]	Test Culture and Results Aspergillis niger # 16404 [2, 20]	Test Culture and Results Aspergillis niger # 16404 [2, 21]	Test Culture and Results Aspergillis niger # 16404 [2, 22]	Test Culture and Results Aspergillis niger # 16404 [2, 23]	also measured
ClC=CC[N+]12CN3CN(CN(C3)C1)C2.[Cl-] [Dowicil 200, 1-(3-chloroallyl)-3,5,7-triaza-1-azonia adamantane chloride, reference compound]	+	0	0	0	0	0	0	0	0	0	+	+	+	+	+	+	+	0	0	0	MIC ([1]; NO.6538, 48 h): 200 µg/mL; MIC [2]: 800 µg/mL; Test Culture and Results Pseudomonas aeruginosa # 9027 [3, 4]: +; Test Culture and Results Pseudomonas aeruginosa # 9027 [3, 5]: +; Test Culture and Results Pseudomonas aeruginosa # 9027 [3, 6]: +; Test Culture and Results Pseudomonas aeruginosa # 9027 [3, 7]: +; Test Culture and Results Pseudomonas aeruginosa # 9027 [3, 8]: +; Test Culture and Results Pseudomonas aeruginosa # 9027 [3, 9]: +; Test Culture and Results Pseudomonas aeruginosa # 9027 [3, 10]: +; Test Culture and Results Pseudomonas aeruginosa # 9027 [3, 11]: +; Test Culture and Results Pseudomonas aeruginosa # 9027 [3, 12]: 0; Test Culture and Results Pseudomonas aeruginosa # 9027 [3, 13]: 0; MIC ([3]; NO.9027, 48 h): 900 µg/mL
CCCCCCCCCCCC[N+](C)(C)CCCN1C(=O)NC(C)(C)C1=O [Example 1]	0	0	0	0	0	0	0	0	0	0	+	+	0	0	0	0	0	0	0	0	Test Culture and Results Staphyloccus aureus # 6538 ([1]; 1.56 parts per million, 48 hours at 35° C): +; Test Culture and Results Staphyloccus aureus # 6538 ([1]; 3.12 parts per million, 48 hours at 35° C): +; Test Culture and Results Staphyloccus aureus # 6538 ([1]; 6.25 parts per million, 48 hours at 35° C): +; Test Culture and Results Staphyloccus aureus # 6538 ([1]; 12.5 parts per million, 48 hours at 35° C): +; Test Culture and Results Staphyloccus aureus # 6538 ([1]; 25 parts per million, 48 hours at 35° C): 0; Test Culture and Results Staphyloccus aureus # 6538 ([1]; 50 parts per million, 48 hours at 35° C): 0; MIC ([1]; NO.6538, Staph. aureus # 6538, 48 hours at 35° C): 25 µg/mL; MIC ([2]; Asperg. niger # 16404, 5 days at 26° C): 300 µg/mL; Test Culture and Results Pseudomonas aeruginosa # 9027 [3, 4]: +; Test Culture and Results Pseudomonas aeruginosa # 9027 [3, 5]: +; Test Culture and Results Pseudomonas aeruginosa # 9027 [3, 6]: +; Test Culture and Results Pseudomonas aeruginosa # 9027 [3, 7]: +; Test Culture and Results Pseudomonas aeruginosa # 9027 [3, 8]: +; Test Culture and Results Pseudomonas aeruginosa # 9027 [3, 9]: 0; Test Culture and Results Pseudomonas aeruginosa # 9027 [3, 10]: 0; Test Culture and Results Pseudomonas aeruginosa # 9027 [3, 11]: 0; Test Culture and Results Pseudomonas aeruginosa # 9027 [3, 12]: 0; Test Culture and Results Pseudomonas aeruginosa # 9027 [3, 13]: 0; MIC ([3]; NO.9027, Pseudo. aerugin # 9027, 48 hours at 35° C): 600 µg/mL
